The record followed here is US11603359B2, “Benzothiadiazepine compounds and their use as bile acid modulators” (Albireo AB, priority 2019, dated 2023).

A word on the IC50: it is the midpoint of a concentration-inhibition curve.

One test addresses T1, human LBAT (Homo sapiens, UniProt Q14973).
T1 construct: expressed in transfected cells; Geneticin-selected LBAT-overexpressing cells
T1 sequence (Q14973 1-349): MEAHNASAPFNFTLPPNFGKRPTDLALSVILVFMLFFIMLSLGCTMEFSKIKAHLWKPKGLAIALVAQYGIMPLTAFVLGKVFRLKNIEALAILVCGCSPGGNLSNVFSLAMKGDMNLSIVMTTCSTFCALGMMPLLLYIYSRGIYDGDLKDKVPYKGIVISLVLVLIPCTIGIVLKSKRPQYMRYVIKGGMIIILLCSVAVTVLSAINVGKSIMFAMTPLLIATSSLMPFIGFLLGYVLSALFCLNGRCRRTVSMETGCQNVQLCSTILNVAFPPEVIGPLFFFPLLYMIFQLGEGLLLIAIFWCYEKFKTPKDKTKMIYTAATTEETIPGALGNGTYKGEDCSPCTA
In words: LBAT (h/m) assay, human LBAT-overexpressing cells, 3H-taurocholic acid uptake. In kind it is cell-based. As to conditions: 0.3 μM 3H-taurocholic acid + 7.5 μM cold taurocholic acid, 20 minutes, read-out: hLBAT IC50. As for the experimental part: 20,000 cells (Human or Mouse LBAT-overexpressing cells) were seeded in 96-wells plate (Corning CLS3809) in 100 μL MEM-alpha medium (Gibco 12571-063) supplemented with 10% FBS (Gibco 10438026) containing Geneticin (Gibco 10131-027) (1 mg/mL) and incubated at 37° C. in 5% CO2 for 24 hours. After incubation, media was decanted from the wells and cells were washed two times with 300 μL of basal MEM-alpha medium (FBS-free). After decanting basal MEM-alpha medium each time, plates were tapped against paper towel to ensure maximum removal of residual media.
For human LBAT, incubation mix was prepared by adding test inhibitor dilutions (3-fold serial dilution in DMSO (Sigma D2650), 10 points) in MEM-alpha (without FBS) containing 0.3 μM 3H-taurocholic acid (ARC ART-1368) and 7.5 μM cold taurocholic acid (Sigma T4009) (maintaining 0.2% final DMSO concentration). For mouse LBAT, incubation mix was prepared by adding test inhibitor dilutions (3-fold serial dilution in DMSO, 10 points) in MEM-alpha (without FBS) containing 0.3 μM 3H-taurocholic acid and 25 μM cold taurocholic acid maintaining 0.2% final DMSO concentration).
50 μL of incubation mix containing test inhibitors was then added to the wells (in duplicate) and the plates were incubated for 20 minutes in a CO2 incubator at 37° C. After incubation, the reaction was stopped by keeping the plates on ice water mix for 2-3 minutes and then the incubation mix was aspirated completely from the wells. The wells were washed two times with 250 μL of chilled unlabelled 1 mM taurocholic acid dissolved in HEPES (Gibco 15630080)-buffered (10 mM) HBSS (Gibco 14175079) (pH 7.4). The plates were tapped against a paper towel after every wash to ensure maximum removal of blocking buffer.
100 μL of MicroScint-20 (PerkinElmer 6013621) was added to the wells and kept overnight at room temperature before reading the plates in TopCount NXT™ Microplate Scintillation and Luminescence Counter from PerkinElmer under 3H Test protocol (set at 120 seconds reading time per well, with normal plate orientation).
(§1) All test compounds were provided in powder form at room temperature. 10 mM DMSO stocks of the test compounds were prepared, aliquoted and stored at −20° C. From the 10 mM DMSO stock of the compounds, a 3-fold serial dilution in DMSO was prepared to get a total of 10 dilutions of the test compounds. 0.5 μL of this dilution in DMSO was added to 250 μL of FBS-free basal media containing 3H-taurocholic acid and cold taurocholic acid to prepare the incubation mixture.

For another test, the target named is T2, human IBAT (Homo sapiens, UniProt Q12908).
T2 construct: expressed in transfected cells; Puromycin-selected IBAT-overexpressing cells
T2 sequence (Q12908 1-348): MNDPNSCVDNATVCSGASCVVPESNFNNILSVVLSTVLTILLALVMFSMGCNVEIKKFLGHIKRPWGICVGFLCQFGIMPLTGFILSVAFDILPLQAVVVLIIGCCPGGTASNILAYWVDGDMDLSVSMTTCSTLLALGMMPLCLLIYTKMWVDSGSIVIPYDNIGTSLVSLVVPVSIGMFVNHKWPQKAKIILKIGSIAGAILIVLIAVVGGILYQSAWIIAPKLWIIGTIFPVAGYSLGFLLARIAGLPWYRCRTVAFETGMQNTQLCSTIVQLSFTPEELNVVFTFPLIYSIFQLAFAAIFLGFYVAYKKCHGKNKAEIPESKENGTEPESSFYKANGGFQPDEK
In words: IBAT (h/m) assay, human IBAT-overexpressing cells, 3H-taurocholic acid uptake. In kind it is cell-based. As to conditions: 0.25 μM 3H-taurocholic acid + 5 μM cold taurocholic acid, 20 minutes, read-out: hIBAT IC50. As to the method:
10,000 cells (Human or Mouse IBAT-overexpressing cells) were seeded in 96-wells plate (Corning CLS3809) in 200 μL MEM-alpha medium (Gibco 12571-063) supplemented with 10% FBS (Gibco 10438026) containing Puromycin (Gibco A1113803) (10 μg/mL) and incubated at 37° C. in 5% CO2 for 48 hours. After incubation, media was decanted from the wells and cells were washed two times with 300 μL of basal MEM-alpha medium (FBS-free). After decanting basal MEM-alpha medium each time, plates were tapped against paper towel to ensure maximum removal of residual media. Test inhibitor dilutions (highest test concentration being 10 μM, 3-fold serial dilution, 10 points) prepared in DMSO (Sigma D2650) were added in incubation mix (maintaining 0.2% final DMSO concentration) containing 0.25 μM 3H-taurocholic acid (ARC ART-1368) and 5 μM of cold taurocholic acid (Sigma T4009). 50 μL of incubation mix containing test inhibitors was then added to the wells (in duplicate) and the plates were incubated for 20 minutes in a CO2 incubator at 37° C. After incubation, the reaction was stopped by keeping the plates on ice water mix for 2-3 minutes and then the incubation mix was aspirated completely from the wells. The wells were washed two times with 250 μL of chilled unlabelled 1 mM taurocholic acid dissolved in HEPES (Gibco 15630080)-buffered (10 mM) HBSS (Gibco 14175079) (pH 7.4). The plates were tapped against a paper towel after every wash to ensure maximum removal of blocking buffer.
100 μL of MicroScint-20 (PerkinElmer 6013621) was added to the wells and kept overnight at room temperature before reading the plates in TopCount NXT™ Microplate Scintillation and Luminescence Counter from PerkinElmer under 3H Test protocol (set at 120 seconds reading time per well).
as §1

On to `CCCCC1(CC)CN(c2ccccc2)c2cc(SC)c(OCCC(=O)O)cc2S(=O)(=O)N1` (racemic) [Example 2, 3-((3-butyl-3-ethyl-7-(methylthio)-1,1-dioxido-5-phenyl-2,3,4,5-tetrahydro-1,2,5-benzothiadiazepin-8-yl)oxy)propanoic acid], for which the IC50 on human LBAT came out at 736 nM; on human IBAT, 4 nM.
As to `CCCCC1(CC)CN(c2ccccc2)c2cc(SC)c(OCCC(=O)O)cc2S(=O)(=O)N1` (single isomer, unassigned) [Example 3, 3-((3-butyl-3-ethyl-7-(methylthio)-1,1-dioxido-5-phenyl-2,3,4,5-tetrahydro-1,2,5-benzothiadiazepin-8-yl)oxy)propanoic acid], the results for the IC50 at human LBAT and at human IBAT were 283 nM and 23 nM, respectively.
For `CCCCC1(CCCC)CN(c2ccccc2)c2cc(SC)c(OCC(O)C(=O)O)cc2S(=O)(=O)N1` (single isomer, unassigned) [Example 6, 3-((3,3-dibutyl-7-(methylthio)-1,1-dioxido-5-phenyl-2,3,4,5-tetrahydro-1,2,5-benzothiadiazepin-8-yl)oxy)-2-hydroxypropanoic acid], the IC50 is 3660 nM on human LBAT and 14 nM at human IBAT.
For `CCCCC1(CC)CN(c2ccccc2)c2cc(N(C)C)c(OCCC(=O)O)cc2S(=O)(=O)N1` (single isomer, unassigned) [Example 13, 3-((3-butyl-7-(dimethylamino)-3-ethyl-1,1-dioxido-5-phenyl-2,3,4,5-tetrahydro-1,2,5-benzothiadiazepin-8-yl)oxy)propanoic acid], the IC50 on human LBAT was 2220 nM; on human IBAT, 15 nM.
Regarding `CCCCC1(CC)CN(c2ccccc2)c2cc(SC)c(OCC(N)C(=O)O)cc2S(=O)(=O)N1` (stereo not shown) [Example 14, O-(3-butyl-3-ethyl-7-(methylthio)-1,1-dioxido-5-phenyl-2,3,4,5-tetrahydro-1,2,5-benzothiadiazepin-8-yl)serine], the IC50 turned out to be 342 nM at human LBAT and 6 nM at human IBAT.
